Experimental data from patent US5843889A, “Glycopeptide antibiotic derivatives” (Eli Lilly and Company, priority 1997, dated 1998).
In brackets after ≈: the same amount, converted by molar mass.

Columns and labels:
Assay type in all cases: cell-based
Lactobacillus confusus = test: MIC, agar dilution on brain-heart infusion agar
Leuconostoc lactis = test: MIC, agar dilution on brain-heart infusion agar; conditions: Leuconostoc lactis (mean of 2)
[1] = tested on: Leuconostoc pseudomesenteroides; test: MIC, agar dilution on brain-heart infusion agar
[2] = tested on: Leuconostoc mesenteroides; test: MIC, agar dilution on brain-heart infusion agar; conditions: Leuconostoc mesenteroides (mean of 4)
[3] = tested on: Entercoccus gallinarum 245; test: MIC, standard broth micro-dilution assay
Experimental: (§1) The formula I compounds have in vitro and in vivo activity against Gram-positive pathogenic bacteria. The MIC's were determined using a standard broth micro-dilution assay.

Entercoccus faecalis 276 = test: MIC, standard broth micro-dilution assay
Experimental: as §1

Pedicoccus acidilacti = test: MIC, agar dilution on brain-heart infusion agar; conditions: Pedioccccus acidilacti (mean of 10)
Pediococcus pentosaceus = test: MIC, agar dilution on brain-heart infusion agar; conditions: Pediococcus pentosaceus (mean of 2)
[4] = tested on: Entercoccus faecalis 2041; test: MIC, standard broth micro-dilution assay
Experimental: as §1

Leuconostoc citreum = test: MIC, agar dilution on brain-heart infusion agar
[5] = tested on: Staphylococcus aureus SA1199B
Experimental: (§2) The MIC's were determined using a standard broth micro-dilution assay.

[6] = tested on: Staphylococcus aureus S13E
Experimental: as §2

[7] = tested on: Haemophilus influenzae RD; test: MIC, standard broth micro-dilution assay
Experimental: as §2

[8] = tested on: Staphylococcus aureus 489; test: MIC, standard broth micro-dilution assay
Experimental: as §2

[9] = tested on: Staphylococcus aureus SA1199; test: MIC, standard broth micro-dilution assay
Experimental: as §2

[10] = tested on: Streptococcus pneumoniae P1; test: MIC, standard broth micro-dilution assay
Experimental: as §2

[11] = tested on: Staphylococcus aureus X400; test: MIC, standard broth micro-dilution assay
Experimental: as §2

[12] = tested on: Staphylococcus haemolyticus 415; test: MIC, standard broth micro-dilution assay
Experimental: as §2

[13] = tested on: Entercoccus faecium 180-1; test: MIC, standard broth micro-dilution assay
Experimental: as §2

[14] = tested on: Staphylococcus aureus SA1199A; test: MIC, standard broth micro-dilution assay
Experimental: as §2

[15] = tested on: Staphylococcus epidermidis 270; test: MIC, standard broth micro-dilution assay
Experimental: as §2

Entercoccus faecium 180 = test: MIC, standard broth micro-dilution assay
Experimental: as §2

[16] = tested on: Staphylococcus aureus 491; test: MIC, standard broth micro-dilution assay
Experimental: as §2

Escherichia coli EC14 = test: MIC, standard broth micro-dilution assay
Experimental: as §2

[17] = tested on: Staphylococcus aureus X778; test: MIC, standard broth micro-dilution assay
Experimental: as §2

[18] = tested on: Staphylococcus aureus 447; test: MIC, standard broth micro-dilution assay
Experimental: as §2

[19] = tested on: Staphylococcus haemolyticus 105; test: MIC, standard broth micro-dilution assay
Experimental: as §2

[20] = tested on: Staphylococcus aureus 446; test: MIC, standard broth micro-dilution assay
Experimental: as §2

SMILES	MIC (Lactobacillus confusus) [µg/mL]	MIC (Leuconostoc lactis) [µg/mL]	MIC [1] [µg/mL]	MIC [2] [µg/mL]	MIC [3] [µg/mL]	MIC (Entercoccus faecalis 276) [µg/mL]	MIC (Pedicoccus acidilacti) [µg/mL]	MIC (Pediococcus pentosaceus) [µg/mL]	MIC [4] [µg/mL]	MIC (Leuconostoc citreum) [µg/mL]	MIC [5] [µg/mL]	MIC [6] [µg/mL]	MIC [7] [µg/mL]	MIC [8] [µg/mL]	MIC [9] [µg/mL]	MIC [10] [µg/mL]	MIC [11] [µg/mL]	MIC [12] [µg/mL]	MIC [13] [µg/mL]	MIC [14] [µg/mL]	further results
CNC(CC(C)C)C(=O)NC1C(=O)NC(CC(N)=O)C(=O)NC2C(=O)NC3C(=O)NC(C(=O)NC(C(=O)O)c4cc(O)cc(O)c4-c4cc3ccc4O)C(OC3CC(C)(N)C(O)C(C)O3)c3ccc(c(Cl)c3)Oc3cc2cc(c3OC2OC(CO)C(O)C(O)C2OC2CC(C)(NCc3ccc(-c4ccccc4)cc3)C(O)C(C)O2)Oc2ccc(cc2Cl)C1O (stereo not shown) [Compound 2, p-phenylbenzyl.cndot.A82846B]	16 (≈ 9.1 µM)	4.0 (≈ 2.27 µM)	32 (≈ 18.2 µM)	16 (≈ 9.1 µM)	≤ 0.06	0.5 (≈ 0.284 µM)	5.9 (≈ 3.35 µM)	11 (≈ 6.25 µM)													
CNC(CC(C)C)C(=O)NC1C(=O)NC(CC(N)=O)C(=O)NC2C(=O)NC3C(=O)NC(C(=O)NC(C(=O)O)c4cc(O)cc(O)c4-c4cc3ccc4O)C(OC3CC(C)(N)C(O)C(C)O3)c3ccc(c(Cl)c3)Oc3cc2cc(c3OC2OC(CO)C(O)C(O)C2OC2CC(C)(NCc3ccc(Oc4ccccc4)cc3)C(O)C(C)O2)Oc2ccc(cc2Cl)C1O (stereo not shown) [Compound 4, p-phenoxybenzyl.cndot.A82846B]	32 (≈ 18 µM)	16 (≈ 9.02 µM)	32 (≈ 18 µM)	16 (≈ 9.02 µM)	≤ 0.06	≤ 0.06	7.5 (≈ 4.23 µM)	16 (≈ 9.02 µM)	≤ 0.06												
CNC(CC(C)C)C(=O)NC1C(=O)NC(CC(N)=O)C(=O)NC2C(=O)NC3C(=O)NC(C(=O)NC(C(=O)O)c4cc(O)cc(O)c4-c4cc3ccc4O)C(OC3CC(C)(N)C(O)C(C)O3)c3ccc(c(Cl)c3)Oc3cc2cc(c3OC2OC(CO)C(O)C(O)C2OC2CC(C)(NCc3ccc(OCc4ccccc4)cc3)C(O)C(C)O2)Oc2ccc(cc2Cl)C1O (stereo not shown) [Compound 5, 4-benzyloxybenzyl]	16 (≈ 8.95 µM)	8.0 (≈ 4.47 µM)	16 (≈ 8.95 µM)	8 (≈ 4.47 µM)	≤ 0.06	≤ 0.06	2.8 (≈ 1.57 µM)	8.0 (≈ 4.47 µM)	≤ 0.06	64 (≈ 35.8 µM)											
CNC(CC(C)C)C(=O)NC1C(=O)NC(CC(N)=O)C(=O)NC2C(=O)NC3C(=O)NC(C(=O)NC(C(=O)O)c4cc(O)cc(O)c4-c4cc3ccc4O)C(OC3CC(C)(N)C(O)C(C)O3)c3ccc(c(Cl)c3)Oc3cc2cc(c3OC2OC(CO)C(O)C(O)C2OC2CC(C)(NCc3ccc(OC(F)(F)F)cc3)C(O)C(C)O2)Oc2ccc(cc2Cl)C1O (stereo not shown) [Compound 6, 4-trifluoromethoxybenzyl]	16 (≈ 9.06 µM)	8.0 (≈ 4.53 µM)	16 (≈ 9.06 µM)	9.5 (≈ 5.38 µM)	≤ 0.06		4.3 (≈ 2.43 µM)	8.0 (≈ 4.53 µM)	≤ 0.06												
CNC(CC(C)C)C(=O)NC1C(=O)NC(CC(N)=O)C(=O)NC2C(=O)NC3C(=O)NC(C(=O)NC(C(=O)O)c4cc(O)cc(O)c4-c4cc3ccc4O)C(OC3CC(C)(N)C(O)C(C)O3)c3ccc(c(Cl)c3)Oc3cc2cc(c3OC2OC(CO)C(O)C(O)C2OC2CC(C)(NCc3ccc(C=Cc4ccccc4)cc3)C(O)C(C)O2)Oc2ccc(cc2Cl)C1O (stereo not shown) [Compound 29, 4-stilbenzyl]	8 (≈ 4.48 µM)	5.7 (≈ 3.19 µM)	16 (≈ 8.97 µM)	6.7 (≈ 3.75 µM)	0.25 (≈ 0.14 µM)	0.25 (≈ 0.14 µM)	4.0 (≈ 2.24 µM)	8.0 (≈ 4.48 µM)	0.25 (≈ 0.14 µM)	32 (≈ 17.9 µM)											
CNC(CC(C)C)C(=O)NC1C(=O)NC(CC(N)=O)C(=O)NC2C(=O)NC3C(=O)NC(C(=O)NC(C(=O)O)c4cc(O)cc(O)c4-c4cc3ccc4O)C(OC3CC(C)(N)C(O)C(C)O3)c3ccc(c(Cl)c3)Oc3cc2cc(c3OC2OC(CO)C(O)C(O)C2OC2CC(C)(NCc3ccc4c(c3)Cc3ccccc3-4)C(O)C(C)O2)Oc2ccc(cc2Cl)C1O (stereo not shown) [Compound 32, 2-fluorenylmethyl]	16 (≈ 9.04 µM)	16 (≈ 9.04 µM)		16 (≈ 9.04 µM)				16 (≈ 9.04 µM)		64 (≈ 36.1 µM)											
CNC(CC(C)C)C(=O)NC1C(=O)NC(CC(N)=O)C(=O)NC2C(=O)NC3C(=O)NC(C(=O)NC(C(=O)O)c4cc(O)cc(O)c4-c4cc3ccc4O)C(OC3CC(C)(N)C(O)C(C)O3)c3ccc(c(Cl)c3)Oc3cc2cc(c3OC2OC(CO)C(O)C(O)C2OC2CC(C)(NCC3CC=CCC3)C(O)C(C)O2)Oc2ccc(cc2Cl)C1O (stereo not shown) [Compound 47, 3,4 cyclohexenylmethyl]					16 (≈ 9.49 µM)	≤ 0.06			≤ 0.06		0.25 (≈ 0.148 µM)	≤ 0.06	> 64	≤ 0.06	0.5 (≈ 0.296 µM)	≤ 0.06	≤ 0.06	16 (≈ 9.49 µM)	≤ 0.06	0.25 (≈ 0.148 µM)	MIC [15]: 1 µg/mL (≈ 0.593 µM); MIC (Entercoccus faecium 180): 2 µg/mL (≈ 1.19 µM); MIC [16]: 0.5 µg/mL (≈ 0.296 µM); MIC (Escherichia coli EC14): > 64 µg/mL; MIC [17]: ≤ 0.06 µg/mL; MIC [18]: 2 µg/mL (≈ 1.19 µM); MIC [19]: 4 µg/mL (≈ 2.37 µM); MIC [20]: 0.125 µg/mL (≈ 0.0741 µM)
CNC(CC(C)C)C(=O)NC1C(=O)NC(CC(N)=O)C(=O)NC2C(=O)NC3C(=O)NC(C(=O)NC(C(=O)O)c4cc(O)cc(O)c4-c4cc3ccc4O)C(OC3CC(C)(N)C(O)C(C)O3)c3ccc(c(Cl)c3)Oc3cc2cc(c3OC2OC(CO)C(O)C(O)C2OC2CC(C)(NCc3ccc4c(c3)OCO4)C(O)C(C)O2)Oc2ccc(cc2Cl)C1O (stereo not shown) [Compound 48, 3,4-methylenedioxylbenzyl]					1 (≈ 0.579 µM)	≤ 0.06			≤ 0.06		1 (≈ 0.579 µM)	≤ 0.06	> 64	≤ 0.06	0.25 (≈ 0.145 µM)	≤ 0.06	≤ 0.06	8 (≈ 4.63 µM)	≤ 0.06	≤ 0.06	MIC [15]: 1 µg/mL (≈ 0.579 µM); MIC (Entercoccus faecium 180): 1 µg/mL (≈ 0.579 µM); MIC [16]: 0.25 µg/mL (≈ 0.145 µM); MIC (Escherichia coli EC14): > 64 µg/mL; MIC [17]: ≤ 0.06 µg/mL; MIC [18]: 2 µg/mL (≈ 1.16 µM); MIC [19]: 2 µg/mL (≈ 1.16 µM); MIC [20]: 0.125 µg/mL (≈ 0.0724 µM)
CNC(CC(C)C)C(=O)NC1C(=O)NC(CC(N)=O)C(=O)NC2C(=O)NC3C(=O)NC(C(=O)NC(C(=O)O)c4cc(O)cc(O)c4-c4cc3ccc4O)C(OC3CC(C)(N)C(O)C(C)O3)c3ccc(c(Cl)c3)Oc3cc2cc(c3OC2OC(CO)C(O)C(O)C2OC2CC(C)(NCc3cccc(Oc4ccccc4)c3)C(O)C(C)O2)Oc2ccc(cc2Cl)C1O (stereo not shown) [Compound 49, 3-phenoxybenzyl]	64 (≈ 36.1 µM)	64 (≈ 36.1 µM)		64 (≈ 36.1 µM)	1 (≈ 0.563 µM)	0.25 (≈ 0.141 µM)	55 (≈ 31 µM)	64 (≈ 36.1 µM)	≤ 0.06		1 (≈ 0.563 µM)	≤ 0.06	> 64	≤ 0.06	2 (≈ 1.13 µM)	≤ 0.06	0.125 (≈ 0.0704 µM)	1 (≈ 0.563 µM)	≤ 0.06	≤ 0.06	MIC [15]: 1 µg/mL (≈ 0.563 µM); MIC (Entercoccus faecium 180): 0.25 µg/mL (≈ 0.141 µM); MIC [16]: 0.125 µg/mL (≈ 0.0704 µM); MIC (Escherichia coli EC14): > 64 µg/mL; MIC [17]: ≤ 0.06 µg/mL; MIC [18]: 1 µg/mL (≈ 0.563 µM); MIC [19]: 1 µg/mL (≈ 0.563 µM); MIC [20]: 0.5 µg/mL (≈ 0.282 µM)
CNC(CC(C)C)C(=O)NC1C(=O)NC(CC(N)=O)C(=O)NC2C(=O)NC3C(=O)NC(C(=O)NC(C(=O)O)c4cc(O)cc(O)c4-c4cc3ccc4O)C(OC3CC(C)(N)C(O)C(C)O3)c3ccc(c(Cl)c3)Oc3cc2cc(c3OC2OC(CO)C(O)C(O)C2OC2CC(C)(NCc3ccc(Sc4ccccc4)cc3)C(O)C(C)O2)Oc2ccc(cc2Cl)C1O (stereo not shown) [Compound 108, 4-thiophenylbenzyl]	16 (≈ 8.93 µM)	8.0 (≈ 4.47 µM)	32 (≈ 17.9 µM)	10 (≈ 5.58 µM)	≤ 0.06	0.5 (≈ 0.279 µM)	12 (≈ 6.7 µM)	23 (≈ 12.8 µM)	≤ 0.06												
